Experimental data as given in US7338955B1, “Medicament for treatment of neuropathies” (Lilly ICOS LLC, priority 1999, dated 2008).

Experiments:
[1] = system: diabetic polyneuropathy; assay: Case report: type 2 diabetes patient with diabetic polyneuropathy treated with sildenafil; format: in vivo, human; settings: twelve months after start of therapy
Procedure: A patient had been suffering from diabetes mellitus, type 2, for 9 years. While blood glucose values (HbA1c between 6 and 7%) were good, symptoms of a diabetic polyneuropathy appeared, namely vibration sensing of 2/8, no filament sensing, and a reduced hot/cold differentiation. Because of a simultaneous erectile dysfunction they were treated with sildenafil in its commercially available preparation (tablets) at 50 mg/week in a single administration.
Subjectively, the patient noted disappearance of sensory misperceptions of temperature.

[2] = system: painful neuropathy; assay: Case report: type 1 diabetes patient with painful neuropathy treated with sildenafil; format: in vivo, human; settings: 50 mg/week single administration
Procedure: A patient had been suffering from diabetes mellitus, type 1, for about 35 years. Complications included a retinopathy and a painful neuropathy. Under intensified insulin therapy, blood glucose metabolism data were in a sub-optimum range (HbA1c around 8%). Thus, the patient suffered from a painful neuropathy and was treated unsuccessfully with various conventional medicaments.
Objectifiable diagnostic data were improved as well.

SMILES: CCCc1nn(C)c2c(=O)[nH]c(-c3cc(S(=O)(=O)N4CCN(C)CC4)ccc3OCC)nc12 [sildenafil]
- neurologic situation ([1]; 50 mg/week single administration (tablets)): largely normal
- sensory misperceptions of temperature (subjective) ([1]; 50 mg/week): disappearance
- vibration sensing ([1]; 50 mg/week, 2/8 before therapy): 5/8
- filament sensing ([1]; 50 mg/week, no filament sensing before therapy): intact
- hot/cold differentiation ([1]; 50 mg/week, reduced before therapy): intact
- symptomatic pain ([2]; in the course of the following three months): lasting improvement
- objectifiable diagnostic data ([2]; three months): improved
